What was measured:
[1] = Growth inhibition of human Hs 578T cells after 48 hrs by sulforhodamine B assay; type: functional
KM12 = experiment: Growth inhibition of human KM12 cells after 48 hrs by sulforhodamine B assay; type: functional, cell-based; conditions: KM12, 48 h
HCT-15 = experiment: Growth inhibition of human HCT15 cells assessed as cell growth at 10 uM after 48 hrs by sulforhodamine B assay; type: functional; conditions: HCT-15, 48 h, read-out: Activity
HOP-92 [2] = experiment: Growth inhibition of human HOP92 cells after 48 hrs by sulforhodamine B assay; type: functional, cell-based; conditions: HOP-92, 48 h
MDA-MB-468 [3] = experiment: Growth inhibition of human MDA-MB-468 cells assessed as cell growth at 10 uM after 48 hrs by sulforhodamine B assay; type: functional; conditions: MDA-MB-468, 48 h, read-out: Activity
SK-MEL-2 [4] = experiment: Growth inhibition of human SK-MEL-2 cells assessed as cell growth at 10 uM after 48 hrs by sulforhodamine B assay; type: functional; conditions: SK-MEL-2, 48 h, read-out: Activity
SNB-19 = experiment: Growth inhibition of human SNB19 cells assessed as cell growth at 10 uM after 48 hrs by sulforhodamine B assay; type: functional; conditions: SNB-19, 48 h, read-out: Activity
TK-10 [5] = experiment: Growth inhibition of human TK10 cells after 48 hrs by sulforhodamine B assay; type: functional; conditions: TK-10, 48 h
IGROV-1 = experiment: Growth inhibition of human IGROV1 cells assessed as cell growth at 10 uM after 48 hrs by sulforhodamine B assay; type: functional; conditions: IGROV-1, 48 h, read-out: Activity
SK-MEL-2 [6] = experiment: Growth inhibition of human SK-MEL-2 cells after 48 hrs by sulforhodamine B assay; type: functional; conditions: SK-MEL-2, 48 h
K562 [7] = experiment: Growth inhibition of human K562 cells after 48 hrs by sulforhodamine B assay; type: functional; conditions: K562, 48 h
NCI-H460 = experiment: Growth inhibition of human NCI-H460 cells assessed as cell growth at 10 uM after 48 hrs by sulforhodamine B assay; type: functional; conditions: NCI-H460, 48 h, read-out: Activity
MDA-MB-231 = experiment: Growth inhibition of human MDA-MB-231 cells assessed as cell growth at 10 uM after 48 hrs by sulforhodamine B assay; type: functional; conditions: MDA-MB-231, 48 h, read-out: Activity
HOP-92 [8] = experiment: Growth inhibition of human HOP92 cells assessed as cell growth at 10 uM after 48 hrs by sulforhodamine B assay; type: functional; conditions: HOP-92, 48 h, read-out: Activity
K562 [9] = experiment: Growth inhibition of human K562 cells assessed as cell growth at 10 uM after 48 hrs by sulforhodamine B assay; type: functional; conditions: K562, 48 h, read-out: Activity
DU-145 = experiment: Growth inhibition of human DU145 cells after 48 hrs by sulforhodamine B assay; type: functional; conditions: DU-145, 48 h
[10] = Growth inhibition of human HCC2998 cells assessed as cell growth at 10 uM after 48 hrs by sulforhodamine B assay; type: functional; conditions: HCC 2998, 48 h, read-out: Activity
LOX IMVI = experiment: Growth inhibition of human LOXIMVI cells after 48 hrs by sulforhodamine B assay; type: functional
MCF7 = experiment: Growth inhibition of human MCF7 cells after 48 hrs by sulforhodamine B assay; type: functional; conditions: MCF7, 48 h
T47D = experiment: Growth inhibition of human T47D cells after 48 hrs by sulforhodamine B assay; type: functional
SN12C = experiment: Growth inhibition of human SN12C cells after 48 hrs by sulforhodamine B assay; type: functional
HL-60(TB) = experiment: Growth inhibition of human HL-60(TB) cells after 48 hrs by sulforhodamine B assay; type: functional; conditions: HL-60, 48 h
A549 [11] = experiment: Growth inhibition of human A549/ATCC cells after 48 hrs by sulforhodamine B assay; type: functional; conditions: A549, 48 h
CCRF-CEM = experiment: Growth inhibition of human CCRF-CEM cells assessed as cell growth at 10 uM after 48 hrs by sulforhodamine B assay; type: functional; conditions: read-out: Activity
SNB-75 = experiment: Growth inhibition of human SNB75 cells after 48 hrs by sulforhodamine B assay; type: functional; conditions: SNB-75, 48 h
A549 [12] = experiment: Growth inhibition of human A549/ATCC cells assessed as cell growth at 10 uM after 48 hrs by sulforhodamine B assay; type: functional; conditions: A549, 48 h, read-out: Activity
OVCAR-3 = experiment: Growth inhibition of human OVCAR3 cells after 48 hrs by sulforhodamine B assay; type: functional, cell-based; conditions: OVCAR-3, 48 h
NCI-H226 = experiment: Growth inhibition of human NCI-H226 cells after 48 hrs by sulforhodamine B assay; type: functional; conditions: NCI-H226, 48 h
TK-10 [13] = experiment: Growth inhibition of human TK10 cells assessed as cell growth at 10 uM after 48 hrs by sulforhodamine B assay; type: functional; conditions: TK-10, 48 h, read-out: Activity
RPMI-8226 = experiment: Growth inhibition of human RPMI8226 cells after 48 hrs by sulforhodamine B assay; type: functional, cell-based; conditions: RPMI-8226, 48 h
NCI-H322M = experiment: Growth inhibition of human NCI-H322M cells after 48 hrs by sulforhodamine B assay; type: functional
RXF 393 = experiment: Growth inhibition of human RXF393 cells assessed as cell growth at 10 uM after 48 hrs by sulforhodamine B assay; type: functional; conditions: RXF 393, 48 h, read-out: Activity
Malme-3M = experiment: Growth inhibition of human MALME-3M cells assessed as cell growth at 10 uM after 48 hrs by sulforhodamine B assay; type: functional; conditions: read-out: Activity
MDA-MB-468 [14] = experiment: Growth inhibition of human MDA-MB-468 cells after 48 hrs by sulforhodamine B assay; type: functional, cell-based; conditions: MDA-MB-468, 48 h
[15] = read-out: LC50 (the source's name)

`COc1cc(-c2nn(-c3cccc(NC(=O)c4ccccc4)c3)cc2-c2ccncc2)ccc1Cl` gave a GI50 [1] of 1.11 µM, a TGI [1] greater than 100 µM and a CC50 [1, 15] greater than 100 µM. For the same compound, the GI50 (KM12) was 0.556 µM, the IC50 (KM12) was 0.56 µM and the TGI (KM12) was greater than 100 µM. The CC50 (KM12; [15]) was greater than 100 µM, the growth at 10 µM (HCT-15) was 19.2% and the GI50 (HOP-92 [2]) was 0.324 µM. It also gave an IC50 (HOP-92 [2]) of 0.32 µM, an LC50 (HOP-92 [2]) greater than 100 µM and a TGI (HOP-92 [2]) of 4.71 µM. For the same compound, the growth at 10 µM (MDA-MB-468 [3]) was -19.7%, the growth at 10 µM (SK-MEL-2 [4]) was -42.5% and the growth at 10 µM (SNB-19) was 50%. It also gave a GI50 (TK-10 [5]) of 7 µM, a TGI (TK-10 [5]) greater than 100 µM and a CC50 (TK-10 [5]; [15]) greater than 100 µM. It also gave a growth at 10 µM (IGROV-1) of 47.4%, a GI50 (SK-MEL-2 [6]) of 0.389 µM and an LC50 (50% lethal concentration) (SK-MEL-2 [6]) greater than 100 µM. For the same compound, the TGI (SK-MEL-2 [6]) was 4.97 µM, the GI50 (K562 [7]) was 0.421 µM and the TGI (K562 [7]) was greater than 100 µM. For the same compound, the CC50 (K562 [7]; [15]) was greater than 100 µM, the growth at 10 µM (NCI-H460) was 2.74% and the growth at 10 µM (MDA-MB-231) was 5.8%. It also gave a growth at 10 µM (HOP-92 [8]) of 9.19%, a growth at 10 µM (K562 [9]) of 2.59% and a GI50 (DU-145) of 0.78 µM. For the same compound, the LC50 (DU-145) was greater than 100 µM, the TGI (DU-145) was 54.7 µM and the growth at 10 µM [10] was 20.1%. It also gave a GI50 (LOX IMVI) of 0.567 µM, an LC50 (LOX IMVI) greater than 100 µM and a TGI (LOX IMVI) greater than 100 µM. The GI50 (MCF7) was 0.335 µM, the LC50 (MCF7) was greater than 100 µM and the TGI (MCF7) was greater than 100 µM. It also gave a GI50 (T47D) of 1.9 µM, a TGI (T47D) greater than 100 µM and a CC50 (T47D; [15]) greater than 100 µM. The GI50 (SN12C) was 2.95 µM, the TGI (SN12C) was greater than 100 µM and the CC50 (SN12C; [15]) was greater than 100 µM. For the same compound, the GI50 (HL-60(TB)) was 0.479 µM, the TGI (HL-60(TB)) was greater than 100 µM and the CC50 (HL-60(TB); [15]) was greater than 100 µM. It also gave a GI50 (A549 [11]) of 0.585 µM, an LC50 (concentration killing 50% of starting cells) (A549 [11]) greater than 100 µM and a TGI (A549 [11]) greater than 100 µM. For the same compound, the growth at 10 µM (CCRF-CEM) was 2.06%, the GI50 (SNB-75) was 0.575 µM and the LC50 (lethal concentration, 50% net cell kill) (SNB-75) was greater than 100 µM. For the same compound, the TGI (SNB-75) was greater than 100 µM, the growth at 10 µM (A549 [12]) was 4.81% and the GI50 (OVCAR-3) was 0.334 µM. For the same compound, the IC50 (OVCAR-3) was 0.33 µM, the TGI (OVCAR-3) was 10.9 µM and the CC50 (OVCAR-3; [15]) was 95.8 µM. For the same compound, the GI50 (NCI-H226) was 2.35 µM, the TGI (NCI-H226) was greater than 100 µM and the CC50 (NCI-H226; [15]) was greater than 100 µM. The growth at 10 µM (TK-10 [13]) was 31%, the GI50 (RPMI-8226) was 0.85 µM and the IC50 (RPMI-8226) was 0.85 µM. For the same compound, the TGI (RPMI-8226) was greater than 100 µM, the CC50 (RPMI-8226; [15]) was greater than 100 µM and the GI50 (NCI-H322M) was 4.59 µM. It also gave a TGI (NCI-H322M) greater than 100 µM, a CC50 (NCI-H322M; [15]) greater than 100 µM and a growth at 10 µM (RXF 393) of -19.2%. For the same compound, the growth at 10 µM (Malme-3M) was 22.4%, the GI50 (MDA-MB-468 [14]) was 0.349 µM and the IC50 (MDA-MB-468 [14]) was 0.35 µM. For the same compound, the TGI (MDA-MB-468 [14]) was 3.42 µM and the CC50 (MDA-MB-468 [14]; [15]) was greater than 100 µM.
